Experimental data taken from patent US10364466B2, “Biological markers for identifying patients for treatment with VEGF antagonists” (Genentech, Inc., priority 2012, dated 2019).

How the values were obtained:
VDV gene expression = test: Microarray VDV signature expression in pre- and post-treatment biopsies of inflammatory breast cancer patients (Table 3, human IBC Log2FC); type: in vivo; settings: 19 inflammatory breast cancer patients, one dose single agent, 21 days post-treatment; published micro-array data (Wedam et al.)
Text: The log2 ratio intensity values from Agilent WMG microarrays and the Robust Multi-array Average (RMA) normalized intensities (also on the logarithmic scale) from Affymetrix Mouse430.2 microarrays were imported into R as expression sets using the package “Biobase,” and a linear model was fitted to each feature using the functions “lmFit” and “eBayes” in the “limma” package. […] The union of these genes was taken as representative of the VEGF-responsive vasculature. The extent to which this VDV gene expression signature varied in other experiments was determined by fitting a linear model to the microarray data using the “limma” package (as above) and calculating the mean of the t-statistics from gene in the signature according to the method of Falcon and Gentleman (Bioinformatics. 23: 257-258, 2007).
As depicted in Table 3 below, the genes in the VDV signature were ordered by the extent of anti-VEGF response in the human IBC trial. Orthologs between human and mouse were mapped using the Ensembl Biomart, where “Log 2FC” represents the log(2) fold-change of the gene's expression post-Avastin treatment as compared to pre-treatment. The 19 paired patient samples and the murine PNETs were analyzed on Agilent microarrays. […]

[1] = system: metastatic colorectal carcinoma (CRC); test: NO16966 first-line metastatic colorectal cancer trial, PFS and OS, stratified by 22-gene VDV signature; type: in vivo, human
Experimental: Sections from archival tumor samples from patients enrolled in the XELOX treatment arms of NO 16966 were evaluated by a pathologist and high tumor content area macro-dissected for subsequent RNA isolation using the FFPE RNA isolation kit (Roche; 7-10 sections per patient). RNA levels were assessed after cDNA synthesis following standard techniques, with the qPCR protocol on the Fluidigm Biomark platform according to the manufacturer's protocol.
Quantitative histological data from various animal experiments were plotted using Microsoft Excel software. Student's t test was applied to compare data sets of interest and differences with p values <0.05 were considered significant. 103 biopsies out of 1017 patients from the XELOX (capecitabine and oxaliplatin)-containing arm in the NO16966 trial were analyzed for the gene expression of VDV genes. qRT-PCR values were normalized by the housekeeping genes and relative to a universal reference sample to derive delta-delta Ct values. Subsequently, the delta-delta Ct value of each of the 22 VDV genes was mean centered and variance scaled to a Z-score.
For each sample i for which all of the VDV genes were analyzed, a VDV signature score (VDVi) was calculated. The VDVi represents a weighted average of z-scores across the analyzed VDV genes and is given by the algorithm:
[formula] wherein Zg,i is the standardized z-score of the qRT-PCR value for gene g of sample i and n, in this instance, is 22. The VDVi value provides quantitative information regarding the extent to which the expression of a particular set of genes is collectively overexpressed or underexpressed relative to a centered mean.
To compare the clinical outcomes (PFS and OS) between marker and/or treatment subgroups, log-rank tests and Cox regression were used, with median time calculated by the Kaplan-Meier analysis. All statistical tests were two-sided.
To test if VDV gene expression could correlate with clinical outcomes, we analyzed VDV gene expression levels in available pre-treatment archival tumor tissue from 103 patients (biomarker evaluable subpopulation) that were enrolled in the XELOX-containing arms. Due to the limited quality and amount of RNA from these clinical samples, gene expression was analyzed in a previously designed and validated “angiogenesis” Fluidigm qRT-PCR chip (FIG. 8B) that included 4 different housekeeping genes (for gene expression normalization), VEGF (as a control), and 22 representative proximal and distal VDV genes comprising: (i) pan-vascular markers such as CD31, CD34, and VE-CADH as indicators of MVD; (ii) key VEGF pathway components and proxVDV genes, including VEGFR-1, VEGFR-2, VEGFR-3, EPHRINB2, NRPs, ESM1, NID2, COL4a2, and LAMA4a; and (iii) additional VDV genes that are components of endothelial signaling pathways and potential modulators of VDV biology, including DLL-4, NOTCH1, ALK1, and EGFL7 (see FIG. 9A for validation of this compacted 22 VDV gene signature).

[2] = system: metastatic colorectal carcinoma (CRC); settings: whole NO16966 study, Saltz et al. 2008; cited from earlier work
[3] = system: metastatic colorectal carcinoma (CRC); settings: patients with metastatic CRC, Hurwitz et al. 2004; cited from earlier work
[4] = 103 biomarker evaluable patients, XELOX arms

bevacizumab: recombinant humanized anti-VEGF monoclonal antibody
VDV transcripts post-treatment vs pre-treatment biopsies (VDV gene expression): clear down regulation
OS HR, addition to chemotherapy [1, 4]: 0.45
PFS HR, addition to chemotherapy [1, 4]: 0.59
OS HR, addition to chemotherapy vs chemotherapy alone ([1]; VDV high patients): 0.31
PFS HR, addition to chemotherapy vs chemotherapy alone ([1]; VDV high patients): 0.36
OS HR, combination with chemotherapy vs chemotherapy alone ([1]; VDV low patients): 0.58
PFS HR, combination with chemotherapy vs chemotherapy alone ([1]; VDV low patients): 0.88
OS differences (secondary endpoint), addition to chemotherapy [2]: did not reach statistical significance
primary endpoint of PFS, addition to chemotherapy [2]: significantly improved
progression free survival (PFS) and overall survival (OS), combination with chemotherapy [3]: increase
